Data taken from the NIST ThermoML archive (doi:10.1016/j.jct.2003.09.004).

Key:
[1] = 298.15 K, 101.33 kPa, Liquid
[2] = excess molar enthalpy (molar enthalpy of mixing); xn = mol fraction of the nth substance listed; details: 298.15 K, 101.33 kPa, Liquid, Flow calorimetry

CCCC(C)C [2-methylpentane]
Details	mass density [kg/m3]
[1]	650.22

CC(C)C(C)C [2,3-dimethylbutane]
Details	mass density [kg/m3]
[1]	662.36

CCC(C)(C)C [2,2-dimethylbutane]
Details	mass density [kg/m3]
[1]	644.92

CCCC(C)C [2-methylpentane] + C=CCCCC
[2]
Details	excess molar enthalpy [kcal/mol]
x2 = 0.0501	0.00256
x2 = 0.1	0.00496
x2 = 0.1504	0.00721
x2 = 0.2	0.00904
x2 = 0.2499	0.0106
x2 = 0.3001	0.0119
x2 = 0.3495	0.0128
x2 = 0.4001	0.0135
x2 = 0.4498	0.0139
x2 = 0.4997	0.014
x2 = 0.5501	0.0139
x2 = 0.6	0.0135
x2 = 0.6501	0.0128
x2 = 0.6993	0.0118
x2 = 0.7503	0.0104
x2 = 0.8001	0.00938
x2 = 0.8575	0.00688
x2 = 0.9	0.00513
x2 = 0.95	0.00269

CCC(C)(C)C [2,2-dimethylbutane] + C=CCCCC
[2]
Details	excess molar enthalpy [kcal/mol]
x2 = 0.05	0.00286
x2 = 0.1	0.0056
x2 = 0.1576	0.00829
x2 = 0.2005	0.01
x2 = 0.2501	0.0116
x2 = 0.3002	0.0129
x2 = 0.3501	0.0138
x2 = 0.4002	0.0145
x2 = 0.4507	0.0149
x2 = 0.4999	0.0149
x2 = 0.5498	0.0147
x2 = 0.5996	0.0142
x2 = 0.6496	0.0134
x2 = 0.7	0.0124
x2 = 0.7501	0.0109
x2 = 0.7999	0.00973
x2 = 0.85	0.00798
x2 = 0.9	0.00524
x2 = 0.95	0.00272

CC(C)C(C)C [2,3-dimethylbutane] + C=CCCCC
[2]
Details	excess molar enthalpy [kcal/mol]
x2 = 0.05	0.00357
x2 = 0.1001	0.00689
x2 = 0.1535	0.0101
x2 = 0.2	0.0124
x2 = 0.2508	0.0147
x2 = 0.2997	0.0162
x2 = 0.3499	0.0175
x2 = 0.3997	0.0186
x2 = 0.4498	0.019
x2 = 0.4998	0.0189
x2 = 0.5498	0.0186
x2 = 0.5996	0.0179
x2 = 0.6497	0.0169
x2 = 0.6997	0.0154
x2 = 0.7498	0.0136
x2 = 0.8001	0.0117
x2 = 0.8501	0.00924
x2 = 0.9	0.00639
x2 = 0.9499	0.00332

C=CCCCC [hex-1-ene]
Details	mass density [kg/m3]
[1]	668.73

CCC(C)CC [3-methylpentane] + C=CCCCC
[2]
Details	excess molar enthalpy [kcal/mol]
x2 = 0.0501	0.00244
x2 = 0.1001	0.00478
x2 = 0.1533	0.00687
x2 = 0.2001	0.00842
x2 = 0.2501	0.00987
x2 = 0.3	0.0111
x2 = 0.3495	0.0119
x2 = 0.3995	0.0126
x2 = 0.45	0.013
x2 = 0.4995	0.0131
x2 = 0.5498	0.0129
x2 = 0.5997	0.0125
x2 = 0.6501	0.0119
x2 = 0.6994	0.0109
x2 = 0.7509	0.00972
x2 = 0.7999	0.00839
x2 = 0.85	0.00659
x2 = 0.9	0.00455
x2 = 0.95	0.00235

CCC(C)CC [3-methylpentane]
Details	mass density [kg/m3]
[1]	659.94

CC(C)CC(C)(C)C [2,2,4-trimethylpentane]
Details	mass density [kg/m3]
[1], Vibrating tube method	688.03

C=CCCCC [hex-1-ene] + CC(C)CC(C)(C)C
[2]
Details	excess molar enthalpy [kcal/mol]
x1 = 0.0501	0.0024
x1 = 0.1001	0.00448
x1 = 0.1501	0.00647
x1 = 0.2075	0.00837
x1 = 0.2499	0.00967
x1 = 0.2998	0.0109
x1 = 0.35	0.0119
x1 = 0.3998	0.0128
x1 = 0.4498	0.013
x1 = 0.4998	0.0134
x1 = 0.5497	0.0134
x1 = 0.5997	0.0131
x1 = 0.6499	0.0125
x1 = 0.6997	0.0117
x1 = 0.75	0.0105
x1 = 0.7994	0.00905
x1 = 0.8498	0.0074
x1 = 0.9	0.00524
x1 = 0.95	0.00273
